Columns and labels:
[1] = Tablet dissolution in pH 5.0 potassium acetate, USP apparatus 2, UV/Vis fiber optic quantitation (216 nm to 230 nm); assay type: physicochemical; details: film-coated Tablets D, F2, C3, ES (average n=6)
Experimental: Tablet's gemcabene dissolution profiles were evaluated using an ultra-violet/visible (uv/vis) light absorption methodology in which dissolved gemcabene in the dissolution media was directly measured inside the dissolution vessel. This method of analysis allowed for real-time measurement of gemcabene dissolution at multiple, closely spaced sampling intervals. This method provides a higher resolution dissolution profile than could be obtained with the HPLC analysis methodology used in Example 13 and allowed for detection of differences in dissolution characteristics between the various gemcabene calcium polymorphs. […] FIG. 56 compares the gemcabene dissolution profiles generated using these two methodologies and Table 28 reports the gemcabene dissolution profiles and % RSD for n=6 dissolution testing conducted with both methods of analysis.

[2] = Aqueous solubility of gemcabene calcium salt forms over 24 hours (HPLC concentration, XRPD form); assay type: physicochemical; details: approximately 25° C.
Experimental: To each vial, approximately 3 mL to 4 mL water were added and the samples were mixed at ambient temperature (approximately 25° C.) for approximately 24 hours. […] From each vial, samples of the slurries were taken after 1, 4, and 24 hours, which were separated by centrifugation. The solids were separated by centrifugation and analyzed by XRPD for solid form and by HPLC for concentration.

[3] = system: patients with familial hypercholesterolemia (FH); experiment: Open-label escalating-dose study (300, 600, 900 mg) in familial hypercholesterolemia patients on stable lipid-lowering therapy: LDL-C; assay type: in vivo, human; details: Patient 1
Experimental: A study was performed to evaluate the efficacy of film-coated Tablet D in treating patients with familial hypercholesterolemia (FH) and who are on stable, lipid-lowering therapy. Male and female patients ≥17 years of age who had been diagnosed with FH by genetic confirmation or a clinical diagnosis based on either (1) a history of an untreated LDL-C concentration ≥500 mg/dl (12.92 mmol/L) together with either appearance of xanthoma before 10 years of age, or evidence of familial hypercholesterolemia in both parents or (2) LDL-C >300 mg/dl (7.76 mmol/L) on maximally tolerated lipid-lowering drug therapy were enrolled in the study.
The study was a 3-period, 3-treatment study using successively escalating doses of 300 mg, 600 mg, and 900 mg gemcabene calcium salt hydrate Crystal Form 1 (PSD90=52 μm). All patients were on each of the successive doses for 4 weeks at a time. Patients remained on their stable, lipid-lowering therapy throughout the study.
Each patient received one 300 mg gemcabene calcium salt hydrate Crystal Form 1 tablet (film-coated Tablet D) orally QD (alternatively written as q.d.; meaning “once a day”) for 4 weeks. The same patients then received 600 mg gemcabene calcium salt hydrate Crystal Form 1 orally QD for 4 weeks. The 600 mg dose consisted of two 300-mg tablets (film-coated Tablet D×2). […]
LDL-C values were measured after the patient had been administered film-coated Tablet D for 2 weeks for each dosing level and on the last day of each dose. For each escalated dose, percent change from baseline in LDL-C was calculated using the baseline LDL-C value and the final LDL-C value measured for each dose. […]
This was an open-label, dose-finding, 3-period, 3-treatment study using successively escalating doses of 300 mg, 600 mg, and 900 mg gemcabene calcium salt hydrate Crystal Form 1 having PSD90 of 52 μm in patients clinically diagnosed with familial hypercholesterolemia (FH). […] Plasma from these samples were analyzed for gemcabene concentrations and the data used for PK analysis. […]

[4] = human, in vivo
Experimental: An open-label, two-sequence, cross-over study to assess the steady-state effects of gemcabene calcium on the single-dose pharmacokinetics (PK) of oral contraceptive tablets in healthy female subjects was conducted with 300 mg tablets containing gemcabene calcium salt hydrate Crystal Form 1 having PSD90 of 52 μm (film-coated Tablet F).
The population for this study was generally healthy, adult female subjects of childbearing potential (≥18 to ≤35 years of age). This population supports the overall objective of the study to evaluate the effect of 600 mg of gemcabene calcium salt hydrate Crystal Form 1 having PSD90 of 52 μm at steady-state on the PK of a single dose of ON 1/35 (Ortho Novum 1/35; combined ethinyl estradiol/norethindrone oral contraceptive). The primary objective of this study was to assess the effect of daily 600 mg of gemcabene calcium salt hydrate Crystal Form 1 having PSD90 of 52 μm at steady-state on the pharmacokinetics (PK) of ON 1/35. The secondary objectives of this study were to assess the safety and tolerability of daily gemcabene 600 mg in combination with a single-dose ON 1/35 and to assess the steady-state PK of 600 mg of gemcabene calcium salt hydrate Crystal Form 1 having PSD90 of 52 μm (film-coated Tablet F×2).
Throughout the study, 2 (12.5%) subjects in Treatment A; 4 (26.7%) subjects during gemcabene alone treatment of Treatment B, and 3 (20%) subjects during gemcabene with ON 1/35 treatment of Treatment B, had treatment-emergent adverse events (TEAEs). […] All TEAEs were considered to be mild or moderate in severity.

SMILES	gemcabene dissolution rate of film-coated tablets, compared among polymorphs [1]	change in polymorphic form during the test period (XRPD) ([2]; slurry in water, 24 hours)	change in concentration (HPLC) during the experiment ([2]; slurry in water, sampled 1, 4, 24 hours)	solubility at 1 h ([2]; thermodynamic from solid, water, 1 h, read-out: Conc. (aqueous solubility))	solubility at 4 h ([2]; thermodynamic from solid, water, 4 h, read-out: Conc. (aqueous solubility))	solubility at 24 h ([2]; thermodynamic from solid, water, 24 h, read-out: Conc. (aqueous solubility))	Form (XRPD) of solid in water slurry ([2]; water, 1 h)	Form (XRPD) of solid in water slurry ([2]; water, 4 h)	Form (XRPD) of solid in water slurry ([2]; water, 24 h)	LDL-C reduction compared to baseline ([3]; 300 mg oral QD, 4 weeks)	LDL-C reduction compared to baseline ([3]; 600 mg oral QD, 8 weeks)	LDL-C reduction compared to baseline ([3]; 900 mg oral QD, 12 weeks)	subjects with a drug-related TEAE (constipation) ([4]; female)	serious adverse events (SAEs) [4]	tolerability [4]
CC(C)(CCCCOCCCCC(C)(C)C(=O)O)C(=O)O.[Ca] [6-(5-Carboxy-5-methyl-hexyloxy)-2,2-dimethylhexanoic acid calcium]	intermediate profile	no change in polymorphic form	small increase	96.2 mg/mL	98.3 mg/mL	99.5 mg/mL	Form 1	Form 1	Form 1	55.2%	49.8%	54.5%			
CC(C)(CCCCOCCCCC(C)(C)C(=O)O)C(=O)O [gemcabene, 6-(5-carboxy-5-methyl-hexyloxy)-2,2-dimethyl-hexanoic acid]													1 subject	no serious adverse events	well tolerated
